Laboratory results reported in article PMC2678945 (The Journal of neuroscience : the official journal of the …, 2008).
Where two headings read alike, the source gives them in different places.

How the values were obtained:
mTRPA1 [1] = target: T1, mTRPA1 (Mus musculus, UniProt Q8BLA8); settings: read-out: IC50, inhibition of MO-induced mTRPA1 activity
mTRPA1-S876V/T877L = mTRPA1-S876V/T877L (Mus musculus, UniProt Q8BLA8, S876V/T877L); type: cell-based
hTRPA1 [2] = target: T2, hTRPA1 (Homo sapiens, UniProt O75762); experiment: FLIPR calcium assay, wild type hTRPA1; type: cell-based
hTRPA1-dTM5 [3] = target: T3, hTRPA1-dTM5 (Homo sapiens / Drosophila melanogaster, UniProt O75762+Q7Z020); type: cell-based
mTRPA1 [4] = target: T1, mTRPA1; experiment: cell-based
hTRPA1-mTM5-6 = hTRPA1-mTM5-6 (Homo sapiens, UniProt O75762, A939G/E920D/H933Y/I890V/I905L/I946M/L867F/L894F/L927F/P897A/S900T/S921A/S937T/S943A/V875G/V942I/Y926L); experiment: FLIPR calcium assay, chimera hTRPA1-mTM5-6; type: cell-based, human / mouse
mosquito-TRPA1 = experiment: FLIPR calcium assay, mosquito-TRPA1; type: cell-based, Anopheles gambiae
hTRPA1-dTM5 [5] = target: T3, hTRPA1-dTM5; experiment: Whole-cell patch-clamp, HEK293T cells expressing hTRPA1-dTM5; type: cell-based; settings: 250 μM menthol
hTRPA1-FGFATLIAM = hTRPA1-FGFATLIAM (Homo sapiens, UniProt O75762, I905L/I946M/L867F/L894F/P897A/S900T/S943A/V875G/V942I); experiment: FLIPR calcium assay, mutant hTRPA1-[…]; type: cell-based
mTRPA1-dTM5 = experiment: Whole-cell patch-clamp, HEK293T cells expressing mTRPA1-dTM5; type: cell-based, mouse / Drosophila melanogaster; settings: 50 μM menthol
hTRPA1 [6] = target: T2, hTRPA1; experiment: Whole-cell patch-clamp, HEK293T cells expressing hTRPA1; type: cell-based; settings: 250 μM menthol; at +120 mV; n = 11
mTRPA1-hTM5-6 = mTRPA1-hTM5-6 (Mus musculus, UniProt Q8BLA8, A900P/A924S/A946S/D923E/F870L/F897L/F930L/G878V/G942A/I945V/L908I/L929Y/M949I/T903S/T940S/V893I/Y936H); experiment: FLIPR calcium assay, chimera mTRPA1-hTM5-6; type: cell-based, mouse / human
hTRPA1-V875G = hTRPA1-V875G (Homo sapiens, UniProt O75762, V875G); experiment: FLIPR calcium assay, mutant hTRPA1-V875G; type: cell-based
dTRPA1-mN = dTRPA1-mN (Mus musculus / Drosophila melanogaster, UniProt Q7Z020+Q8BLA8); type: cell-based
dTRPA1 = target: T4, dTRPA1 (Drosophila melanogaster, UniProt Q7Z020); experiment: Whole-cell patch-clamp, HEK293T cells expressing dTRPA1; type: cell-based; settings: at +120 mV
T4 sequence (Q7Z020 1-1197): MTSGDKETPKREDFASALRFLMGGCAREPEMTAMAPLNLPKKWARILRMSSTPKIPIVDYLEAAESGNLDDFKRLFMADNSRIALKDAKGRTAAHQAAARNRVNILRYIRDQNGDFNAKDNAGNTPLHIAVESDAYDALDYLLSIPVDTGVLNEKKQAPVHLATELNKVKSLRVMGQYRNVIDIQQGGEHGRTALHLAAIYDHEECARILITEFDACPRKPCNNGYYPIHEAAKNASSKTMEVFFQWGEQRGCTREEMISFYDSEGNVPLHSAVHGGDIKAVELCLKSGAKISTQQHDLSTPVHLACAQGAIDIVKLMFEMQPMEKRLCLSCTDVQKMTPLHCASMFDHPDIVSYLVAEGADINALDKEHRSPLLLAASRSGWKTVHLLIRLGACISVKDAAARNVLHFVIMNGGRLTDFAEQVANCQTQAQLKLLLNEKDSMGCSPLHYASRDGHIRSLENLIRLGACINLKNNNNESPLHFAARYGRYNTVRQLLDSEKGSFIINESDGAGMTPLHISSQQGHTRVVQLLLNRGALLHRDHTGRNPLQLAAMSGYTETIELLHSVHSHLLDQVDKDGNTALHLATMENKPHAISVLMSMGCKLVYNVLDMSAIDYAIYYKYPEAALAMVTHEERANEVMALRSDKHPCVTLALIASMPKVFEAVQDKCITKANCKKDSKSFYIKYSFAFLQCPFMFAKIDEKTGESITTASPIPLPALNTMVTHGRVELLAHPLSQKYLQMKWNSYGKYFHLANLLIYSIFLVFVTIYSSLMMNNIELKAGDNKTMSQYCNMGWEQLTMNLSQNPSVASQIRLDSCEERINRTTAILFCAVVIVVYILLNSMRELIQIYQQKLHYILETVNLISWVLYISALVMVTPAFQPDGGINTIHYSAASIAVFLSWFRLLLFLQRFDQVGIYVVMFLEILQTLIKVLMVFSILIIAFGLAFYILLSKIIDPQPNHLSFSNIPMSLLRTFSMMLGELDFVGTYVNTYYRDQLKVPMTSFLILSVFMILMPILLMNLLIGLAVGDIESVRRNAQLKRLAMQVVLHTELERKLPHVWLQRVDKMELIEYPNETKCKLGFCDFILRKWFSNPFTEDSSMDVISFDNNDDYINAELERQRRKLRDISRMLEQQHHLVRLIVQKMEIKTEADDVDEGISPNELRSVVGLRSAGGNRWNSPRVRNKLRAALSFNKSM

fugu-TRPA1 = experiment: FLIPR calcium assay, fugu-TRPA1; type: cell-based, Takifugu
mTRPA1 [7] = target: T1, mTRPA1; experiment: Whole-cell patch-clamp, HEK293T cells expressing mTRPA1; type: cell-based; settings: 100 μM MO in the presence of 500 μM menthol; n = 7

T2 sequence (O75762 whole entry): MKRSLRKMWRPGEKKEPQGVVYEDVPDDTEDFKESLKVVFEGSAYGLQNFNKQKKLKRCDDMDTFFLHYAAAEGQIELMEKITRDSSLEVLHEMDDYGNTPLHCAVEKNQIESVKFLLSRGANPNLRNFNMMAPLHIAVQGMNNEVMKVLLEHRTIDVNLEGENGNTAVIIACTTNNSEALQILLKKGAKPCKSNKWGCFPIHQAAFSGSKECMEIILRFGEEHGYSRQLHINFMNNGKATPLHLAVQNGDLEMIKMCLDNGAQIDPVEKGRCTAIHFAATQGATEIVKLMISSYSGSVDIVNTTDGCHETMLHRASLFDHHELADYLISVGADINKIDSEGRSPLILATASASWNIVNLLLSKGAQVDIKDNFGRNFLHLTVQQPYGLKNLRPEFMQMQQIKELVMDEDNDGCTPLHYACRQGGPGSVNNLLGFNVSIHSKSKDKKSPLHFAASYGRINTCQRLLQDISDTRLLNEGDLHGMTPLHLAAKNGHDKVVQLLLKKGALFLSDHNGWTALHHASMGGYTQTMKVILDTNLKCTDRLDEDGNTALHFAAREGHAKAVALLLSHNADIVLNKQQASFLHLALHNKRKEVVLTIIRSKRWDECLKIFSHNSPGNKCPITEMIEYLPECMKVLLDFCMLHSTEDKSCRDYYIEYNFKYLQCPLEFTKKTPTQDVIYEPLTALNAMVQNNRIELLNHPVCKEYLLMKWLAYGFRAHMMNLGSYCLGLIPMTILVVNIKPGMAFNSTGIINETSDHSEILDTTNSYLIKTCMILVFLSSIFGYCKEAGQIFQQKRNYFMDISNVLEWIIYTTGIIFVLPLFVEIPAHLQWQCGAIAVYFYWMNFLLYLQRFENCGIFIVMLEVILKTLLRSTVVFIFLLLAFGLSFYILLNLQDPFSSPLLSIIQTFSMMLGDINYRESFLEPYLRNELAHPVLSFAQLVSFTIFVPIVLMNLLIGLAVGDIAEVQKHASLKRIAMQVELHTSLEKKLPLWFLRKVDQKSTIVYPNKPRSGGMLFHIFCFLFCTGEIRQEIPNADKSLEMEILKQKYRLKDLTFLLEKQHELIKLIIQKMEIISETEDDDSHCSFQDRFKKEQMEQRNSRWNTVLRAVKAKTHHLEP
T1 sequence (Q8BLA8 whole entry): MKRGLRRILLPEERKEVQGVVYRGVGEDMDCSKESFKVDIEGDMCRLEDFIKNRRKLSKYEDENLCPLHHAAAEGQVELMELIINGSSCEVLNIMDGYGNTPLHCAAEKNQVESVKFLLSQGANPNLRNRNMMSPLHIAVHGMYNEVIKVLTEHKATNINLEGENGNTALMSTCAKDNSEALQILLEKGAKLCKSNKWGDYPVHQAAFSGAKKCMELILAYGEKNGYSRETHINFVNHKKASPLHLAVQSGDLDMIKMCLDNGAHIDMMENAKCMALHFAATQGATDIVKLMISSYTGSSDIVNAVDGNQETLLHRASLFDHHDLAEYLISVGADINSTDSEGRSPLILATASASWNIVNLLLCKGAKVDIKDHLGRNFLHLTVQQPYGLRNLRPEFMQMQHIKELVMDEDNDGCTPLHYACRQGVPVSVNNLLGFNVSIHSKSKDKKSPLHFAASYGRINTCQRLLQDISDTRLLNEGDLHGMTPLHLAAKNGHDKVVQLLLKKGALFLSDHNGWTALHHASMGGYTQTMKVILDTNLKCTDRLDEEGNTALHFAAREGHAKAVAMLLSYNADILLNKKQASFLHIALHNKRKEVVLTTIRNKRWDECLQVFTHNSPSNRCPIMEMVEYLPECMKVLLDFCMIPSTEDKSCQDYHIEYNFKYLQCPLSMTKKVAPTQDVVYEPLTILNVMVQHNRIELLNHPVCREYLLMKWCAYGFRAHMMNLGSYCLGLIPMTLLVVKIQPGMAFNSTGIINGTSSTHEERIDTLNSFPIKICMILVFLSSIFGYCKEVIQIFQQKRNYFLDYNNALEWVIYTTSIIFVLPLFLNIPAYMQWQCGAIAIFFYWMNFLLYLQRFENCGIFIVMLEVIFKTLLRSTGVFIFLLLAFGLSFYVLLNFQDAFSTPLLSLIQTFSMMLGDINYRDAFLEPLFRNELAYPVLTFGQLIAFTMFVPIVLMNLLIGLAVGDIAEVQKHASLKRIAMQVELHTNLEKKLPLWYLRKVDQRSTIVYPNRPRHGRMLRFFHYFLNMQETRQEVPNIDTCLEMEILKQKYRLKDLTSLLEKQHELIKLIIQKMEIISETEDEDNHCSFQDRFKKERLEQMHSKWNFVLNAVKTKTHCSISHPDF
Chain of mTRPA1-hTM5-6 (Q8BLA8 1-1125 with the stated changes): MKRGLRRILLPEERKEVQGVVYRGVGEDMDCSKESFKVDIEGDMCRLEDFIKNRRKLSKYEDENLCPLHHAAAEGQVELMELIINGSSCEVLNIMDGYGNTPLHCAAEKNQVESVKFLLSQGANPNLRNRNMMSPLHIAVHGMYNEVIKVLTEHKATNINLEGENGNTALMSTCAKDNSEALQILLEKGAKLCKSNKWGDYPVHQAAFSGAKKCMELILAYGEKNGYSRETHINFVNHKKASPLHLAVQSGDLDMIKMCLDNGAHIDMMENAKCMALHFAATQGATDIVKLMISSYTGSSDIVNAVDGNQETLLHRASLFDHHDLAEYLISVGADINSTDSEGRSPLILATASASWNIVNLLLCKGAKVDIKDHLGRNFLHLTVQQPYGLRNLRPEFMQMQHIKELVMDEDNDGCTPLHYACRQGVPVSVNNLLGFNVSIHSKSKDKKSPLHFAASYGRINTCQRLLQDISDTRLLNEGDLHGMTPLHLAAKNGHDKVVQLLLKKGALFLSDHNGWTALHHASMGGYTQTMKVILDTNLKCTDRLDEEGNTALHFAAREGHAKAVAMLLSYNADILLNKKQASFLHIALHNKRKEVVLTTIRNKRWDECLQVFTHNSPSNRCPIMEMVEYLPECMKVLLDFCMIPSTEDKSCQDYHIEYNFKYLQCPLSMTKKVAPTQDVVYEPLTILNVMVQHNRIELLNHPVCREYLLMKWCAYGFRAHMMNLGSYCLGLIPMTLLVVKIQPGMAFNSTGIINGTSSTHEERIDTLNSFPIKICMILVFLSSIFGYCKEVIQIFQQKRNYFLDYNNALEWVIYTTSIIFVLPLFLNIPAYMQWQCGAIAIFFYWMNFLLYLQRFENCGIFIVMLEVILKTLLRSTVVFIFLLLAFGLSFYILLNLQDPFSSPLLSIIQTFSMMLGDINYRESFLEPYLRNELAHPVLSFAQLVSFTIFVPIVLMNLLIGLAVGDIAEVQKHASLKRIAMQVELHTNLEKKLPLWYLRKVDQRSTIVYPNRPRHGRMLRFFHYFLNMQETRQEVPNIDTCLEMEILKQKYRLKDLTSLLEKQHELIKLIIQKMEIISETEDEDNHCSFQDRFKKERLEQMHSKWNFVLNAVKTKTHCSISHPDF
Chain of hTRPA1-FGFATLIAM (O75762 whole entry L867F/V875G/L894F/P897A/S900T/I905L/V942I/S943A/I946M): as the sequence (O75762 whole entry) above, with L867F, V875G, L894F, P897A, S900T, I905L, V942I, S943A, I946M counted along it

CC(=NO)/C(C)=C\c1ccc(Cl)cc1 [AP18, (Z)-4-(4-chlorophynyl)-3-methylbut-3-en-2-oxime]
IC50 (mTRPA1 [1]): 0.69 ± 0.09 µM
inhibitory effect on MO-induced mTRPA1-S876V/T877L activity (mTRPA1-S876V/T877L): totally abolished
IC50 (hTRPA1 [2]; read-out: hTRPA1 IC50 (Inhibition)): 0.6 ± 0.17 µM
hTRPA1-dTM5 IC50 (Inhibition) (hTRPA1-dTM5 [3]): No inhibition

CC(C)=CCC/C(C)=C/CC/C(C)=C/CSc1ccccc1C(=O)O [FTS, Farnesyl thiosalicylic acid]
EC50 (hTRPA1 [2]; read-out: hTRPA1 EC50 (Activation)): 7.3 ± 1.1 µM
hTRPA1-dTM5 EC50 (Activation) (hTRPA1-dTM5 [3]): No activation

CC(C)c1ccc(NC(=O)Cn2cnc3c2c(=O)n(C)c(=O)n3C)cc1 [HC030031, 2-(1,3-dimethyl-2,6-dioxo-1,2,3,6-tetrahydro-7H-purin-7-yl)-N-(4-isopropylphenyl)acetamide]
IC50 (hTRPA1 [2]): 12.9 ± 2.67 µM

CC(C)[C@@H]1CC[C@@H](C)C[C@H]1O [Menthol, (-)-Menthol]
IC50 (mTRPA1 [4]): 73.4 ± 11.5 µM
IC50 (hTRPA1-mTM5-6): 71 ± 16.5 µM
menthol sensitivity of mosquito-TRPA1 (mosquito-TRPA1): not sensitive
activation of hTRPA1-dTM5 current (hTRPA1-dTM5 [5]): completely abolished
IC50 (hTRPA1-FGFATLIAM): 36.6 ± 9 µM
activation of mTRPA1-dTM5 current (mTRPA1-dTM5): completely abolished
whole cell current density evoked in hTRPA1 cells (hTRPA1 [6]): 59.0 ± 10.2 pA/pF
block of the response of hTRPA1 to 100 μM MO (hTRPA1 [2]): did not block
hTRPA1-dTM5 EC50 (Activation) (hTRPA1-dTM5 [3]; FLIPR, responses normalized to 100 μM MO): No activation
EC50 (mTRPA1-hTM5-6): 43.9 ± 6.4 µM
inhibition of MO-evoked mTRPA1-hTM5-6 activity (mTRPA1-hTM5-6; FLIPR, 100 μM MO): not significantly inhibited
IC50 (hTRPA1-V875G): 119 ± 16.5 µM
menthol effect at dTRPA1-mN (dTRPA1-mN): ineffective
change in evoked current in dTRPA1 cells (dTRPA1; 25-100 μM menthol, n = 7): -0.53 ± 0.3 pA/pF
activation of dTRPA1 current (dTRPA1; 250-500 μM menthol, 3 min of recording): ineffective
menthol sensitivity of fugu-TRPA1 (fugu-TRPA1): not sensitive
MO-induced mTRPA1 currents at +120 mV, normalized to currents elicited at +180 mV (mTRPA1 [7]): 16 ± 7%

Cl.Cl.Cl.Cl.Cl.Cl.N.N.N.N.N.N.N.N.N.N.N.N.N.N.[O-2].[O-2].[Ru+3].[Ru+3].[Ru+4] [Ruthenium Red, ruthenium red]
IC50 (hTRPA1-dTM5 [3]; read-out: hTRPA1-dTM5 IC50 (Inhibition)): 0.48 ± 0.03 µM
